# Biological target: PDE10A (Homo sapiens (Human), UniProt Q9Y233)
# Assay: Measurement of PDE activity (recombinant PDE, cAMP HTRF)
# Format: biochemical
# Settings: 20 nM cyclic nucleotide substrate, 60 minutes at 29 C
# Experimental: a) Measurement of PDE Activity
# The recombinant PDE proteins are used in in vitro enzymatic reaction for measurement of PDE activity. These recombinant proteins, including PDE10A (human, rat and mouse PDE10) and isoforms of PDEs 1, 3, 4, and 5, were purchased from commercial vendor BPS Bioscience. The enzymatic activity of PDEs was determined by cAMP measurement kit from CisBio (IBA) using HTRF technology.
# The PDE enzymatic reaction was carried out in assay buffer (20 mM Tris-HCl pH7.5, 10 mM MgCl2, 0.1% bovine serum albumin) containing enzyme and substrate. […] The substrate cyclic nucleotide (cAMP or cGMP) concentration used in the assay was 20 nM for PDE10, and 100 nM for other PDEs. The inhibitory effect of compound was determined by incubating various concentration of inhibitor in the enzymatic assay. […] Next, the compound at varying concentration was mixed with PDE enzyme. The reaction was initiated by addition of cyclic nucleotide substrate, and incubated for 60 minutes at 29 C. The reaction was stopped by addition of lysis buffer from assay kit. The cAMP-d2 and anti-cAMP cryptate in the lysis buffer detected the level of cAMP left from the PDE hydrolysis reaction. […] Thus, IC50 value of inhibitor can be obtained by plotting inhibitor concentration against PDE activity at that concentration.
# Sequence of PDE10A (Q9Y233 whole entry, species assumed): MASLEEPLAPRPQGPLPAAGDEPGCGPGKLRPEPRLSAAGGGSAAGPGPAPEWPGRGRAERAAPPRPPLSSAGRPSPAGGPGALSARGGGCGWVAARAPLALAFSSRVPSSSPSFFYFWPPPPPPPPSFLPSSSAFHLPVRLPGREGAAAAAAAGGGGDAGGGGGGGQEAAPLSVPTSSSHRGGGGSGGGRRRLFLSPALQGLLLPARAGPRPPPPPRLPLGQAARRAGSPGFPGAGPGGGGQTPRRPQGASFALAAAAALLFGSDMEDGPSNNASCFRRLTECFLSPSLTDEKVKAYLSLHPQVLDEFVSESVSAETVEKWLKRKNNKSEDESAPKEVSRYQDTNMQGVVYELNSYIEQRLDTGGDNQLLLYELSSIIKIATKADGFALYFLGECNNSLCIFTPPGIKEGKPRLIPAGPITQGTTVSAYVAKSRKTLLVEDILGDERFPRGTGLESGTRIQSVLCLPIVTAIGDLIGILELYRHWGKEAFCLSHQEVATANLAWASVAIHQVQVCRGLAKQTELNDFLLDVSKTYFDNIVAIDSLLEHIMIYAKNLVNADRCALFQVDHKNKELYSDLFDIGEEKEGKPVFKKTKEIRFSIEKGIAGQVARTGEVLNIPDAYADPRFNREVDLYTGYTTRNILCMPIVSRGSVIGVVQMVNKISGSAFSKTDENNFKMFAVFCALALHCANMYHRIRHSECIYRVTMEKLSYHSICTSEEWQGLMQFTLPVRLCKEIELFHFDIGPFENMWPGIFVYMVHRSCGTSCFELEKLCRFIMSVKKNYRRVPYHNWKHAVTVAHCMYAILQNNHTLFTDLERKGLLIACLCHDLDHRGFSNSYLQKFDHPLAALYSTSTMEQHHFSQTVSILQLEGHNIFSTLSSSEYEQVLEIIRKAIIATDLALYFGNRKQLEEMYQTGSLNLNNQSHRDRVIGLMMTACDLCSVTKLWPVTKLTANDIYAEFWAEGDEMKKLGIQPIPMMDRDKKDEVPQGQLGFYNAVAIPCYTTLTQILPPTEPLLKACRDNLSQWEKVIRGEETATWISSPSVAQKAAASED
row,IC50,Structure (SMILES)
1,200 to 500 nM,"CCC(CC)n1cc(C(=O)NCc2ccncc2)c2cc(OC)c(OC)cc2c1=O [Example 261, 6,7-Dimethoxy-1-oxo-2-(pentan-3-yl)-N-(pyridin-4-ylmethyl)-1,2-dihydroisoquinoline-4-carboxamide]"
2,100 to 200 nM,"CCC(CC)n1cc(C(=O)NCc2ccc(C)cc2)c2cc(OC)c(OC)cc2c1=O [Example 262, 6,7-Dimethoxy-N-(4-methylbenzyl)-1-oxo-2-(pentan-3-yl)-1,2-dihydroisoquinoline-4-carboxamide]"
3,200 to 500 nM,"CCC(CC)n1cc(C(=O)NCc2ccc(C#N)o2)c2cc(OC)c(OC)cc2c1=O [Example 264, N-((5-Cyanofuran-2-yl)methyl)-6,7-dimethoxy-1-oxo-2-(pentan-3-yl)-1,2-dihydroisoquinoline-4-carboxamide]"
4,200 to 500 nM,"CCC(CC)n1cc(C(=O)NC2CCc3c(Cl)cccc32)c2cc(OC)c(OC)cc2c1=O (centres unmarked) [Example 265, N-(4-Chloro-2,3-dihydro-1H-inden-1-yl)-6,7-dimethoxy-1-oxo-2-(pentan-3-yl)-1,2-dihydroisoquinoline-4-carboxamide]"
5,200 to 500 nM,"CCc1ccc(CNC(=O)c2cn(C(CC)CC)c(=O)c3cc(OC)c(OC)cc23)s1 [Example 266, N-((5-Ethylthiophen-2-yl)methyl)-6,7-dimethoxy-1-oxo-2-(pentan-3-yl)-1,2-dihydroisoquinoline-4-carboxamide]"
6,200 to 500 nM,"CCC(CC)n1cc(C(=O)NCc2ccoc2C)c2cc(OC)c(OC)cc2c1=O [Example 268, 6,7-Dimethoxy-N-((2-methylfuran-3-yl)methyl)-1-oxo-2-(pentan-3-yl)-1,2-dihydroisoquinoline-4-carboxamide]"
7,200 to 500 nM,"CCC(CC)n1cc(C(=O)NCc2ccn(C)n2)c2cc(OC)c(OC)cc2c1=O [Example 269, 6,7-Dimethoxy-N-((1-methyl-1H-pyrazol-3-yl)methyl)-1-oxo-2-(pentan-3-yl)-1,2-dihydroisoquinoline-4-carboxamide]"
8,200 to 500 nM,"CCn1cc(C(=O)NCc2ccc(C)cc2F)c2cc(OC)c(OC)cc2c1=O [Example 273, 2-Ethyl-N-[(2-fluoro-4-methyl-phenyl)methyl]-6,7-dimethoxy-1-oxo-isoquinoline-4-carboxamide]"
9,200 to 500 nM,"CCn1cc(C(=O)NCc2ccc(C)cc2OC(C)(C)CC)c2cc(OC)c(OC)cc2c1=O [Example 277, N-[[2-(1,1-Dimethylpropoxy)-4-methyl-phenyl]methyl]-2-ethyl-6,7-dimethoxy-1-oxo-isoquinoline-4-carboxamide]"
10,200 to 500 nM,"CCn1cc(C(=O)NCc2ccc(C)c(F)c2F)c2cc(OC)c(OC)cc2c1=O [Example 278, N-[(2,3-Difluoro-4-methyl-phenyl)methyl]-2-ethyl-6,7-dimethoxy-1-oxo-isoquinoline-4-carboxamide]"
11,200 to 500 nM,"CCn1cc(C(=O)NCc2ccc(C)cc2OCC(F)(F)F)c2cc(OC)c(OC)cc2c1=O [Example 288, 2-Ethyl-6,7-dimethoxy-N-[[4-methyl-2-(2,2,2-trifluoroethoxy)phenyl]methyl]-1-oxo-isoquinoline-4-carboxamide]"
12,200 to 500 nM,"CCn1cc(C(=O)NCc2ccc(C)cc2OCC2CC2)c2cc(OC)c(OC)cc2c1=O [Example 290, N-[[2-(Cyclopropylmethoxy)-4-methyl-phenyl]methyl]-2-ethyl-6,7-dimethoxy-1-oxo-isoquinoline-4-carboxamide]"
13,200 to 500 nM,"CCn1cc(C(=O)NCc2ccc(C)cc2OCCOC)c2cc(OC)c(OC)cc2c1=O [Example 293, 2-Ethyl-6,7-dimethoxy-N-[[2-(2-methoxyethoxy)-4-methyl-phenyl]methyl]-1-oxo-isoquinoline-4-carboxamide]"

row,Structure (SMILES),IC50
1,"CCn1cc(C(=O)NCc2ccc(C)cc2OC(C)(C)C)c2cc(OC)c(OC)cc2c1=O [Example 276, N-[(2-tert-Butoxy-4-methyl-phenyl)methyl]-2-ethyl-6,7-dimethoxy-1-oxo-isoquinoline-4-carboxamide]",200 to 500 nM
